What was measured:
[1] = molecular target: T1, Acetylcholinesterase (Bos taurus, UniProt P23795); experiment: Inhibition of Acetylcholinesterase activity of calf forebrain
T1 sequence (P23795 whole entry): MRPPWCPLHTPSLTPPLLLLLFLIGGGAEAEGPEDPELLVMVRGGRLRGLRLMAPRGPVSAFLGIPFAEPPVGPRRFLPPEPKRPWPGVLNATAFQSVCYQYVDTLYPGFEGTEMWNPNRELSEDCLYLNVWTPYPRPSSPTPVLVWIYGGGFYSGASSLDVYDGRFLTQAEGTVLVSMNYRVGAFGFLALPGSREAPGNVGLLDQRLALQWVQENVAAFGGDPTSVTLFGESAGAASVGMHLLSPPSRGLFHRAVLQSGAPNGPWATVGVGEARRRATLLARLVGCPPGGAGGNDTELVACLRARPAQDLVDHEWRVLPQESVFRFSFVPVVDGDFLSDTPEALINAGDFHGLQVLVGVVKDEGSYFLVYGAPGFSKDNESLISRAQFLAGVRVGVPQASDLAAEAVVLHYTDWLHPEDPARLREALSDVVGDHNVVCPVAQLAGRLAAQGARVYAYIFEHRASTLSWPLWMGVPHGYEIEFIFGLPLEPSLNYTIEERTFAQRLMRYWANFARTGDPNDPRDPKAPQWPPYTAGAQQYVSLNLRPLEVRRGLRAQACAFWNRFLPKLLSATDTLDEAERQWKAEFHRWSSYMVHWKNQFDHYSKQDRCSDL

[2] = molecular target: T2, Acetylcholinesterase (Homo sapiens, UniProt P22303); experiment: Inhibition of Acetylcholinesterase from human red blood cells
T2 sequence (P22303 whole entry): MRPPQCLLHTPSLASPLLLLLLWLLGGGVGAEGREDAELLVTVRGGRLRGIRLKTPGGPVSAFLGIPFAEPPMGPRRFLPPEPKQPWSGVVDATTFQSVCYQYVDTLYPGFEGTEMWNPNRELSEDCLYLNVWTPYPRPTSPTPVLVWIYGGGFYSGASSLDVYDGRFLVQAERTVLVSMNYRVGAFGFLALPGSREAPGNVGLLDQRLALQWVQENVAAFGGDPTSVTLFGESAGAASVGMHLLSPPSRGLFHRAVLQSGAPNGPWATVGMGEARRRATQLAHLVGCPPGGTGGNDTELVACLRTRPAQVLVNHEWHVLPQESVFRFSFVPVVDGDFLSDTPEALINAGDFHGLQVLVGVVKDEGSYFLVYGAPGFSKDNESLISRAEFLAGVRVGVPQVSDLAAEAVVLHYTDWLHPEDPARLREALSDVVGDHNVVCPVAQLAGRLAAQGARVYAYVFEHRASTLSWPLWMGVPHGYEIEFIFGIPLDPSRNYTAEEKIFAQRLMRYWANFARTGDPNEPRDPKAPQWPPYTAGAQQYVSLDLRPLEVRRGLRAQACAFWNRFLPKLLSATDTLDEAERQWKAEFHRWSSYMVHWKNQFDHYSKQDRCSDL

[3] = molecular target: T1, Acetylcholinesterase; experiment: Binding affinity against Acetylcholinesterase of purified calf forebrain (CFB)
[4] = molecular target: T2, Acetylcholinesterase; experiment: Binding affinity against Acetylcholinesterase of human RBC
[5] = molecular target: T1, Acetylcholinesterase; experiment: In vitro inhibition of Acetylcholinesterase activity from calf fore brain was evaluated using 1 mM of ATC as substrate; NI=Not inhibitory
[6] = molecular target: T2, Acetylcholinesterase; experiment: In vitro inhibition of Acetylcholinesterase activity from human red blood cells was evaluated using 1 mM of ATC as substrate; NI=Not inhibitory

CCC(C)CSC(=O)OCC[N+](C)(C)C.[Cl-] (stereo not given)
IC50 [1]: 800 µM
IC50 [2]: 1000 µM

CCCCCCSC(=O)OCC[N+](C)(C)C
IC50 [1]: 20 µM
IC50 [2]: 80 µM

CCCCSC(=O)OCC[N+](C)(C)C
IC50 [1]: 100 µM
IC50 [2]: 500 µM

CCCCCCCSC(=O)OCC[N+](C)(C)C
IC50 [1]: 10 µM
Ki [3]: 10000 nM
Ki [4]: 20 µM
IC50 [2]: 50 µM

CC(C)(C)SC(=O)OCC[N+](C)(C)C.[Cl-]
IC50 [5]: No inhibition
IC50 [6]: No inhibition

CCSC(=O)OCC[N+](C)(C)C
IC50 [1]: > 10000 µM
IC50 [2]: > 10000 µM

CCc1ccccc1SC(=O)OCC[N+](C)(C)C.[Cl-]
IC50 [1]: 10 µM
IC50 [2]: 50 µM

CCCCCSC(=O)OCC[N+](C)(C)C
IC50 [1]: 1 µM
Ki [3]: 1000 nM
IC50 [2]: 0.8 µM

CCC(C)(C)SC(=O)OCC[N+](C)(C)C.[Cl-]
IC50 [1]: 10 µM
IC50 [2]: 40 µM

CCc1ccc(SC(=O)OCC[N+](C)(C)C)cc1
IC50 [1]: 100 µM
IC50 [2]: 500 µM

CCCSC(=O)OCC[N+](C)(C)C
IC50 [1]: > 1000 µM
IC50 [2]: > 5000 µM

CC(C)SC(=O)OCC[N+](C)(C)C.[Cl-]
IC50 [5]: No inhibition
IC50 [6]: No inhibition

C[N+](C)(C)CCOC(=O)Sc1ccccc1.[Cl-]
IC50 [1]: 100 µM
IC50 [2]: 1000 µM

CC(C)CCSC(=O)OCC[N+](C)(C)C
IC50 [1]: 10 µM
IC50 [2]: 50 µM

CCN(CC)CCNC(=O)c1ccc(N)cc1 [PROCAINAMIDE]
IC50 [1]: 0.5 µM
Ki [3]: 1000 nM
Ki [4]: 1 µM
IC50 [2]: 1 µM

Reference: ChEMBL document CHEMBL1130148, “Synthesis and study of thiocarbonate derivatives of choline as potential inhibitors of acetylcholinesterase” (J Med Chem, 1997)
